pKi: −log10 of the molar value. Active and inactive are the calls of the source. The calls are words filed in the database; no cut-off is given here.
tested on: PANC-1; assay: Cytotoxicity against human PANC1 cells assessed as reduction in cell viability incubated for 48 hrs under hypoxia condition by MTT assay; format: functional, cell-based; conditions: not given

SMILES | Activity
NS(=O)(=O)c1ccc(-n2ncccc2=O)cc1 | inactive
CCN1CCN(c2cnn(-c3ccc(S(N)(=O)=O)cc3)c(=O)c2Cl)CC1 | inactive

molecular target: T1, Carbonic anhydrase 12 (Homo sapiens, UniProt O43570); conditions: not given
T1 sequence (O43570 whole entry): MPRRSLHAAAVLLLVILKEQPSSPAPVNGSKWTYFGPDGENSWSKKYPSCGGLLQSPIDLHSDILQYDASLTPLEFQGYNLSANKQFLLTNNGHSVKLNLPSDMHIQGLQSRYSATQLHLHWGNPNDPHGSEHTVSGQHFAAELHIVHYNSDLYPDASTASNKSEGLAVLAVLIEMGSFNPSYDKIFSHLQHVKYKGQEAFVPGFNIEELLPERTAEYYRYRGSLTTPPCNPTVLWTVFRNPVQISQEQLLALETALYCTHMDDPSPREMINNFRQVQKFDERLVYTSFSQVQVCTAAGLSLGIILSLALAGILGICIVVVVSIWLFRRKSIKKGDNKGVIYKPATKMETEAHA

pKi | SMILES
8.52 | NS(=O)(=O)c1ccc(S(=O)(=O)Nc2cccc3c(Cl)c[nH]c23)cc1

molecular target: Carbonic anhydrase 1 (Homo sapiens, UniProt P00915); assay: Inhibition of human cytosolic CA 1 preincubated for 15 mins by phenol red dye-based stopped-flow CO2 hydration assay; conditions: not given
Sequence (P00915 whole entry): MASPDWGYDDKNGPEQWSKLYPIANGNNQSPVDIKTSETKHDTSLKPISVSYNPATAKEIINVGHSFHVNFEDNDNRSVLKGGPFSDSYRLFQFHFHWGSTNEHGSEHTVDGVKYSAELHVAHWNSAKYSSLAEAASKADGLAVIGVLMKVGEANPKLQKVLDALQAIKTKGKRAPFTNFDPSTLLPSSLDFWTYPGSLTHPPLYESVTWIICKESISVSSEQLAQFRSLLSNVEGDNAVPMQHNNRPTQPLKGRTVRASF

SMILES | pKi
NS(=O)(=O)c1ccc(-n2ncc(N3CCCCCC3)cc2=O)cc1 | 7.05
NS(=O)(=O)c1ccc(-n2ncccc2=O)cc1 | 6.49
CCN1CCN(c2cnn(-c3ccc(S(N)(=O)=O)cc3)c(=O)c2)CC1 | 6.51
NS(=O)(=O)c1ccc(-n2ncc(N3CCOCC3)c(Cl)c2=O)cc1 | 7.05
CCN1CCN(c2cnn(-c3ccc(S(N)(=O)=O)cc3)c(=O)c2Cl)CC1 | 6.31

More lines, now with the values ahead:

pKi | SMILES
7.08 | NS(=O)(=O)c1ccc(-n2nc(-c3ccccc3O)ccc2=O)cc1
7.02 | NS(=O)(=O)c1ccc(-n2ncc(NCc3ccccc3)c(Cl)c2=O)cc1
6.32 | NS(=O)(=O)c1ccc(-n2ncc(NCCCN3CCOCC3)c(Cl)c2=O)cc1
6.17 | NS(=O)(=O)c1ccc(-n2ncc(N3CCN(c4ccccn4)CC3)c(Cl)c2=O)cc1
6.13 | NS(=O)(=O)c1ccc(-n2ncc(N3CCc4ccccc4C3)c(Cl)c2=O)cc1
7.14 | NS(=O)(=O)c1ccc(-n2ncc3ccccc3c2=O)cc1

molecular target: Carbonic anhydrase 2 (Homo sapiens, UniProt P00918); assay: Inhibition of human cytosolic CA 2 preincubated for 15 mins by phenol red dye-based stopped-flow CO2 hydration assay; conditions: not given

SMILES | pKi
NS(=O)(=O)c1ccc(-n2ncc(N3CCCCCC3)cc2=O)cc1 | 10.10
NS(=O)(=O)c1ccc(-n2ncccc2=O)cc1 | 8.09
CCN1CCN(c2cnn(-c3ccc(S(N)(=O)=O)cc3)c(=O)c2)CC1 | 8.37
NS(=O)(=O)c1ccc(-n2ncc(N3CCOCC3)c(Cl)c2=O)cc1 | 10.15
CCN1CCN(c2cnn(-c3ccc(S(N)(=O)=O)cc3)c(=O)c2Cl)CC1 | 9.54

Second part, the compound after the results:

pKi | SMILES
9.21 | NS(=O)(=O)c1ccc(-n2nc(-c3ccccc3O)ccc2=O)cc1
10.05 | NS(=O)(=O)c1ccc(-n2ncc(NCc3ccccc3)c(Cl)c2=O)cc1
9.17 | NS(=O)(=O)c1ccc(-n2ncc(NCCCN3CCOCC3)c(Cl)c2=O)cc1
7.33 | NS(=O)(=O)c1ccc(-n2ncc(N3CCN(c4ccccn4)CC3)c(Cl)c2=O)cc1
7.22 | NS(=O)(=O)c1ccc(-n2ncc(N3CCc4ccccc4C3)c(Cl)c2=O)cc1
9.64 | NS(=O)(=O)c1ccc(-n2ncc3ccccc3c2=O)cc1

molecular target: Carbonic anhydrase 9 (Homo sapiens, UniProt Q16790); assay: Inhibition of membrane bound human CA 9 preincubated for 15 mins by phenol red dye-based stopped-flow CO2 hydration assay; conditions: not given

SMILES | pKi
NS(=O)(=O)c1ccc(-n2ncc(N3CCCCCC3)cc2=O)cc1 | 9.25
NS(=O)(=O)c1ccc(-n2ncccc2=O)cc1 | 8.05
CCN1CCN(c2cnn(-c3ccc(S(N)(=O)=O)cc3)c(=O)c2)CC1 | 7.38
NS(=O)(=O)c1ccc(-n2ncc(N3CCOCC3)c(Cl)c2=O)cc1 | 9.24
CCN1CCN(c2cnn(-c3ccc(S(N)(=O)=O)cc3)c(=O)c2Cl)CC1 | 9.15

More lines, now with the values ahead:

pKi | SMILES
9.34 | NS(=O)(=O)c1ccc(-n2nc(-c3ccccc3O)ccc2=O)cc1
9.17 | NS(=O)(=O)c1ccc(-n2ncc(NCc3ccccc3)c(Cl)c2=O)cc1
8.55 | NS(=O)(=O)c1ccc(-n2ncc(NCCCN3CCOCC3)c(Cl)c2=O)cc1
7.05 | NS(=O)(=O)c1ccc(-n2ncc(N3CCN(c4ccccn4)CC3)c(Cl)c2=O)cc1
7.05 | NS(=O)(=O)c1ccc(-n2ncc(N3CCc4ccccc4C3)c(Cl)c2=O)cc1
9.49 | NS(=O)(=O)c1ccc(-n2ncc3ccccc3c2=O)cc1

molecular target: T1, Carbonic anhydrase 12; assay: Inhibition of membrane bound human CA 12 preincubated for 15 mins by phenol red dye-based stopped-flow CO2 hydration assay; conditions: not given

SMILES | pKi
NS(=O)(=O)c1ccc(-n2ncc(N3CCCCCC3)cc2=O)cc1 | 8.20
NS(=O)(=O)c1ccc(-n2ncccc2=O)cc1 | 7.09
CCN1CCN(c2cnn(-c3ccc(S(N)(=O)=O)cc3)c(=O)c2)CC1 | 7.60
NS(=O)(=O)c1ccc(-n2ncc(N3CCOCC3)c(Cl)c2=O)cc1 | 7.44
CCN1CCN(c2cnn(-c3ccc(S(N)(=O)=O)cc3)c(=O)c2Cl)CC1 | 8.14

Second part, the compound after the results:

pKi | SMILES
8.03 | NS(=O)(=O)c1ccc(-n2nc(-c3ccccc3O)ccc2=O)cc1
8.03 | NS(=O)(=O)c1ccc(-n2ncc(NCc3ccccc3)c(Cl)c2=O)cc1
8.00 | NS(=O)(=O)c1ccc(-n2ncc(NCCCN3CCOCC3)c(Cl)c2=O)cc1
6.98 | NS(=O)(=O)c1ccc(-n2ncc(N3CCN(c4ccccn4)CC3)c(Cl)c2=O)cc1
7.07 | NS(=O)(=O)c1ccc(-n2ncc(N3CCc4ccccc4C3)c(Cl)c2=O)cc1
7.30 | NS(=O)(=O)c1ccc(-n2ncc3ccccc3c2=O)cc1

tested on: PANC-1; assay: Cytotoxicity against human PANC1 cells assessed as reduction in cell viability incubated for 48 hrs under hypoxia condition by MTT assay relative to human ARPE19 cells; format: functional; conditions: not given

SMILES | Activity [%]
NS(=O)(=O)c1ccc(-n2ncc(N3CCN(c4ccccn4)CC3)c(Cl)c2=O)cc1 | >30
NS(=O)(=O)c1ccc(-n2ncccc2=O)cc1 | >30
NS(=O)(=O)c1ccc(-n2ncc(N3CCOCC3)c(Cl)c2=O)cc1 | >30
CCN1CCN(c2cnn(-c3ccc(S(N)(=O)=O)cc3)c(=O)c2Cl)CC1 | >30

tested on: ARPE-19; assay: Cytotoxicity against human ARPE19 cells assessed as reduction in cell viability incubated for 48 hrs under hypoxia condition by MTT assay relative to control; format: cell-based; conditions: arpe-19, 48 h

SMILES | Activity
NS(=O)(=O)c1ccc(-n2ncccc2=O)cc1 | Non-Toxic
CCN1CCN(c2cnn(-c3ccc(S(N)(=O)=O)cc3)c(=O)c2Cl)CC1 | Non-Toxic

tested on: SK-MEL-2; assay: Cytotoxicity against human SK-MEL-2 cells assessed as reduction in cell viability incubated for 48 hrs under hypoxia condition by MTT assay relative to control; format: functional, cell-based; conditions: not given

SMILES | Activity
NS(=O)(=O)c1ccc(-n2ncccc2=O)cc1 | inactive
NS(=O)(=O)c1ccc(-n2ncc(N3CCOCC3)c(Cl)c2=O)cc1 | Dose-dependent effect
CCN1CCN(c2cnn(-c3ccc(S(N)(=O)=O)cc3)c(=O)c2Cl)CC1 | inactive

tested on: PANC-1; assay: Cytotoxicity against human PANC1 cells assessed as reduction in cell viability incubated for 48 hrs under normoxic condition by MTT assay relative to control; format: functional, cell-based; conditions: not given

SMILES | Activity
NS(=O)(=O)c1ccc(-n2ncccc2=O)cc1 | inactive
CCN1CCN(c2cnn(-c3ccc(S(N)(=O)=O)cc3)c(=O)c2Cl)CC1 | inactive

tested on: ARPE-19; assay: Cytotoxicity against human ARPE19 cells assessed as reduction in cell viability incubated for 48 hrs under normoxic condition by MTT assay relative to control; format: cell-based; conditions: arpe-19, 48 h

SMILES | Activity
NS(=O)(=O)c1ccc(-n2ncccc2=O)cc1 | Non-Toxic
NS(=O)(=O)c1ccc(-n2ncc(N3CCOCC3)c(Cl)c2=O)cc1 | Non-Toxic
CCN1CCN(c2cnn(-c3ccc(S(N)(=O)=O)cc3)c(=O)c2Cl)CC1 | Non-Toxic

tested on: SK-MEL-2; assay: Cytotoxicity against human SK-MEL-2 cells assessed as reduction in cell viability incubated for 48 hrs under normoxic condition by MTT assay relative to control; format: functional, cell-based; conditions: not given

SMILES | Activity
NS(=O)(=O)c1ccc(-n2ncccc2=O)cc1 | inactive
NS(=O)(=O)c1ccc(-n2ncc(N3CCOCC3)c(Cl)c2=O)cc1 | Dose-dependent effect
CCN1CCN(c2cnn(-c3ccc(S(N)(=O)=O)cc3)c(=O)c2Cl)CC1 | inactive

tested on: SK-MEL-2; assay: Cytotoxicity against human SK-MEL-2 cells assessed as reduction in cell viability at 300 uM incubated for 48 hrs under normoxic condition by MTT assay relative to control; format: functional, cell-based; conditions: not given

SMILES | Activity
CCN1CCN(c2cnn(-c3ccc(S(N)(=O)=O)cc3)c(=O)c2)CC1 | Active

tested on: PANC-1; assay: Cytotoxicity against human PANC1 cells assessed as reduction in cell viability incubated for 48 hrs under hypoxia condition by MTT assay relative to control; format: functional, cell-based; conditions: not given

SMILES | Activity
NS(=O)(=O)c1ccc(-n2ncccc2=O)cc1 | inactive
CCN1CCN(c2cnn(-c3ccc(S(N)(=O)=O)cc3)c(=O)c2Cl)CC1 | inactive
